According to patent US20090047704A1, “Combination of a Histological or Cytological Fixing Agent and One or More Photoactivatable Compounds of the Quinone Family, In Particular Hypericin, Hypocrellin A and Hypocrellin B” (NOVACYT, priority 2005, published 2009):
“Also recorded” adds a separate entry of the source.

What was measured:
Format in all cases: cell-based
tumorous cells = assay: Incorporation of hypericin by tumorous cells suspended in fixing agent solution; conditions: tumorous cells in suspension in fixing agent solution containing micromolar measures of hypericin
Description: Since the liquid phase of the cell suspension practically no longer contains hypericin, it is possible to carry out a direct analysis of the cells (morphological and/or fluorescence emission analysis) without rinsing the cell suspension. This property therefore allows the cell/tissue preparation and the analysis of the cells to be automated.

[1] = test system: normal epithelial cells from a cervical smear; assay: Microspectrofluorometer measurement of hypericin marking in a fixed mixed cell suspension, normal cells; conditions: Sakomano fixing agent, 2 μm/ml, one hour, shielded from light
Description: (§1) Cells from a line of epidermoid malphigian carcinoma of the cervix, of the type HeLa, are cultivated in a petri dish. They are then fixed in a cytological fixing agent of the Sakomano type which already includes normal epithelial cells from a cervical smear in order to verify the affinity of hypericin for the tumorous cells in a cell suspension containing several types of normal cells and tumorous cells. Hypericin is then placed in suspension for one hour in the cell suspension fixed at a concentration of 2 μm/ml and shielded from light. Tests are carried out using a microspectrofluorometer in order to compare the level of intensity of fluorescence and the quality of the fluorescence spectrum measured for the different cells of the suspension, incubated at the same concentration for one hour in the solution of Sakomano cytological fixing agent containing hypericin.

Human glioblastoma cells = assay: Microspectrofluorometer comparison of hypericin fluorescence in living versus fixed glioblastoma cells; conditions: 2 micromoles per ml hypericin in Sakomano cytological fixing agent, one hour
Procedure: Human glioblastoma cells are cultivated in a petri dish. Hypericin is placed in suspension in a solution of Sakomano cytological fixing agent, with a concentration of 2 micromoles per ml, four hours before the experiments. The fixing agent solution comprising hypericin is shielded from light. The cells of the glioblastoma are directly fixed by placing them in the solution of fixing agent prepared based on hypericin for one hour. Comparative tests are carried out using a microspectrofluorometer in order to compare the level of intensity of fluorescence and the quality of the fluorescence spectrum measured in cultures of identical living glioblastoma cells, incubated at the same concentration for one hour in the solution of Sakomano cytological fixing agent containing hypericin, and the fixed cells.

tumorous HeLa cells = assay: Microspectrofluorometer measurement of hypericin marking in a fixed mixed cell suspension, tumorous cells; conditions: Sakomano fixing agent, 2 μm/ml, one hour, shielded from light
Description: as §1

## Cc1cc(O)c2c(=O)c3c(O)cc(O)c4c5c(O)cc(O)c6c(=O)c7c(O)cc(C)c8c1c2c(c34)c(c78)c65 [hypericin, 1,3,4,6,8,13-hexahydroxy-10,11-dimethylphenanthro(1,10,9,8,opqra)perylene-7,14-dione]
Tumorous cells
  incorporation of hypericin by the cells: almost all of the hypericin is incorporated by the cells
[1]
  affinity of hypericin for normal cells: very low level of affinity; also recorded: low level of affinity
  localisation of hypericin in normal cells: peripheral localisation in the region of the cell membrane
Human glioblastoma cells
  fluorescence spectrums, living cells versus fixed cells: can be completely superimposed
  levels of intensity of the fluorescence, living cells versus fixed cells: identical
Tumorous HeLa cells
  affinity of hypericin for tumorous cells: great affinity
  localisation of hypericin in tumorous cells: preferential perinuclear localisation; also recorded: very specific preferential perinuclear localisation
